Test results published in the supplement of paper PMC10307832.

Tests used:
Test in all cases: relative viability (nuclei count vs DMSO), 5 days (fraction); higher = more cells survive
[1] = compound: C1=CC(=CC=C1C2=CC(=C(S2)NC(=O)N)C(=O)N)F [TPCA-1] + Nc1nc2[nH]cc(CCc3ccc(C(=O)N[C@@H](CCC(=O)O)C(=O)O)cc3)c2c(=O)[nH]1 [Pemetrexed] (partner 0.2 µM)
Procedure, shortened: (§1)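 Lung cancer cell lines, seeded in 1536-well plates, were treated the following day by pin tool with a single drug or with five library-drug doses (not always all listed) in √10 steps on top of a fixed anchor-drug dose. Cells were fixed and nuclei stained in one step after 5 days, and nuclei were counted. Relative viability is the nuclei count for treated wells divided by that for vehicle wells, reported as medians of duplicate plates.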

[2] = compound: C1/C(=C\C2=CC=CS2)/C(=O)/C(=C/C3=CC=CS3)/C1 + CC(C)C[C@H](NC(=O)[C@H](Cc1ccccc1)NC(=O)c1cnccn1)B(O)O [Bortezomib] (partner 0.002 µM)
Procedure, shortened: as §1

[3] = compound: C[C@]12O[C@H](C[C@]1(O)CO)n1c3ccccc3c3c4c(c5c6ccccc6n2c5c31)CNC4=O [Lestaurtinib] + COc1cccc2cc(-c3nc([C@H]4CC[C@H](C(=O)O)CC4)n4ncnc(N)c34)[nH]c12 [OSI-027] (partner 0.5 µM)
Procedure, shortened: as §1

[4] = compound: C1/C(=C\C2=CC=CS2)/C(=O)/C(=C/C3=CC=CS3)/C1 + C[C@]1(O)C[C@@H](c2nc(-c3ccc4ccc(-c5ccccc5)nc4c3)c3c(N)nccn32)C1 [Linsitinib] (partner 1 µM)
Procedure, shortened: as §1

Row | Cell Line | relative viability ([1]; first compound 0.04 µM) | relative viability ([1]; first compound 0.1265 µM) | relative viability ([1]; first compound 0.4 µM) | relative viability ([1]; first compound 1.265 µM) | relative viability ([1]; first compound 4 µM) | relative viability ([2]; first compound 0.2 µM) | relative viability ([2]; first compound 0.6325 µM) | relative viability ([2]; first compound 2 µM) | relative viability ([2]; first compound 6.325 µM) | relative viability ([2]; first compound 20 µM) | relative viability ([3]; first compound 0.005 µM) | relative viability ([3]; first compound 0.01581 µM) | relative viability ([3]; first compound 0.05 µM) | relative viability ([3]; first compound 0.1581 µM) | relative viability ([3]; first compound 0.5 µM) | relative viability ([4]; first compound 0.2 µM) | relative viability ([4]; first compound 0.6325 µM) | relative viability ([4]; first compound 2 µM) | relative viability ([4]; first compound 6.325 µM) | relative viability ([4]; first compound 20 µM)
1 | ChaGo-K-1 | 0.273 | 0.23 | 0.274 | 0.261 | 0.211 | 0.998 | 0.934 | 0.967 | 0.559 | 0.517 | 0.608 | 0.626 | 0.5 | 0.376 | 0.373 |  |  |  |  | 
2 | EBC-1 |  |  |  |  |  | 0.524 | 0.558 | 0.551 | 0.441 | 0.605 |  |  |  |  |  | 0.904 | 0.973 | 0.887 | 0.801 | 0.942
3 | EKVX | 0.43 |  | 0.343 | 0.329 | 0.375 | 1.11 | 1.02 | 1.12 | 0.933 | 1.1 | 0.773 | 0.697 | 0.79 | 0.717 | 0.602 | 1.1 | 1.05 | 0.974 | 0.776 | 1
4 | EMC-BAC-2 | 0.422 | 0.472 | 0.466 | 0.436 | 0.484 | 1.16 | 1.08 | 1.19 | 0.967 | 1.02 | 0.38 | 0.365 | 0.363 | 0.308 | 0.263 | 0.811 | 0.787 | 0.84 | 0.761 | 0.792
5 | EPLC-272H | 0.287 | 0.331 | 0.371 | 0.359 | 0.266 | 0.957 | 0.903 | 0.93 | 1.01 | 0.839 | 0.288 | 0.278 | 0.222 | 0.223 | 0.166 | 1.29 | 1.07 | 1.22 | 1.19 | 1.03
6 | H3255 | 0.577 | 0.487 | 0.58 | 0.484 | 0.493 | 0.778 | 0.82 | 0.71 | 0.84 | 0.618 | 0.63 | 0.515 | 0.56 | 0.36 | 0.276 | 0.949 | 0.92 | 0.909 | 0.728 | 0.913
7 | HARA | 0.242 | 0.226 | 0.226 | 0.198 | 0.223 | 1.23 | 1.1 | 1.08 | 0.89 | 1.07 | 0.629 | 0.469 | 0.324 | 0.278 | 0.104 | 0.968 | 1.06 | 0.898 | 0.242 | 0.902
8 | HCC-15 | 0.222 | 0.227 | 0.224 | 0.238 | 0.22 | 1.06 | 1.03 | 1.03 | 0.884 | 1.03 | 0.717 | 0.757 | 0.658 | 0.464 | 0.185 | 0.899 | 0.921 | 0.846 | 0.734 | 0.888
9 | HCC-44 | 0.617 | 0.657 | 0.575 | 0.627 | 0.595 | 0.911 | 0.851 | 0.844 | 0.801 | 0.923 | 0.548 | 0.654 | 0.462 | 0.659 | 0.705 | 0.633 | 0.748 | 0.693 | 0.592 | 0.655
